This note sets out measurements from patent publication US20240285643A1, “TREATING INFLUENZA USING SUBSTITUTED POLYCYCLIC PYRIDONE DERIVATIVES AND PRODRUGS THEREOF IN A SUBJECT HAVING INFLUENZA AND A SEVERE INFLUENZA CONDITION” (Shionogi & Co., Ltd., priority 2019, published 2024).

Series [1] concerns influenza type A virus A/Osaka/129/2009 and Streptococcus pneumoniae SR1326. It is filed as in vivo, BALB/c mice. The following applies: for mice survived: BXA 10 mg/kg sc single dose, OSP 10 mg/kg po bid 5 days, through 15 days.
A further series can be described thus: clinical. The note with it: human, in vivo. The protocol: Patients were administered up to three doses of baloxavir marboxil separated by 3 days (i.e., Days 1, 4, and 7). […] Likewise, total drug exposure simulated on Day 7 area under the plasma concentration-time curve for a dosing interval (AUCtau) was not expected to exceed area under the concentration-time curve from Time 0 to infinity (AUCinf) of the TQT, regardless of dose.

In series [2] the test system is influenza type A virus A/Osaka/129/2009 and Streptococcus pneumoniae SR1326. It is filed as in vivo, BALB/c mice. The following applies: for mice recovered from body weight loss and survived: BXA 10 mg/kg sc single dose, OSP 10 mg/kg po bid 5 days.
The conditions of series [3]: SD, rat, in vivo.
On the set-up of series [4]: species or system rats. The following applies: rat, po. The source says:
FIGS. 1 and 2 show a result of measuring the plasma concentration of Compound (III) and Compound (II-6), respectively, after oral administration of prodrug Compound (II-6) to rats under non-fasting conditions.

What is called Cmax is the peak of the concentration-time curve. What is called half-life is the time in which the quantity being followed falls by half.

In the case of baloxavir marboxil [II-6], the “body weight change after virus infection” value in series [1] (2-day delayed treatment, compared with vehicle, OSP or monotherapy) is “less reduction of body weight”.

Consider `O=C1c2c(O)c(=O)ccn2N([C@@H]2c3ccccc3SCc3c2ccc(F)c3F)[C@@H]2COCCN12` [III, baloxavir], for which, in the series “clinical”, the Cmax turned out to be 0.126 µg/mL and the half-life is around 70 h. Moreover, the “mice recovered from body weight loss and survived” value in series [2] came out at 40%. For the same compound, the “BA (%)” value in series [3] was 4.2%. Moreover, in series [1], the mice survived is recorded as 75%.

On to `COC(=O)OCOc1c2n(ccc1=O)N([C@@H]1c3ccccc3SCc3c1ccc(F)c3F)[C@@H]1COCCN1C2=O` [II-6, baloxavir marboxil], for which, in series [3], the “BA (%)” value is given as 14.9%. The “conversion of prodrug to Compound (III) in vivo” value in series [4] was “metabolized promptly to Compound (III)”.

As to `CC(=O)Oc1c2n(ccc1=O)N([C@@H]1c3ccccc3SCc3c1ccc(F)c3F)[C@@H]1COCCN1C2=O` [II-4], in series [3], the “BA (%)” value was 20.0%.

For the compound `CCOC(=O)C1=C[C@@H](OC(CC)CC)[C@H](NC(C)=O)[C@@H](N)C1` [OSP, Oseltamivir phosphate, reference compound], the “mice recovered from body weight loss and survived” value in series [2] is on record as “all mice died”. In series [2] (mouse, in vivo), the efficacy on survival result is reported as “not effective”. Further, the “survival time compared with vehicle treatment” value in series [1] (2-day delayed treatment, log rank test) is on record as “significantly prolonged”. Moreover, the mice survived result in series [1] is listed as “all mice died”.
